Laboratory results: article PMC6602958, “Pharmacokinetics of anti-infectious reagents in silkworms” (Scientific Reports, 2019)
Values after ≈ are worked out from the molar mass of the structure shown. Where two headings read alike, the source gives them in different places. Each block holds one compound with its values, some of them ahead of it.

Assays:
cytochrome P450 [1] = assay: 7-ethoxycoumarin deethylation activity in silkworm tissue culture (fluorometry); format: in vitro ADME, Bombyx mori (silkworm); conditions: midgut, fat body, silk gland, Malpighian tubule in organ culture
Method: Figure 2 Tissue specificity of 7-ethoxycoumarin deethylation activity in silkworm. (A) The midgut, fat body, silk gland, and Malpighian tubule were extirpated from silkworms and incubated in medium containing 7-ethoxycoumarin at 30 °C. Medium was collected, extracted by acetone, and evaporated. Samples […] in 50 mM NaOAc buffer (pH 6.0) were treated with beta-glucosidase. The amount of 7-hydroxycomarin, a metabolite, was determined by fluorometry. (B) Inhibition of 7-ethoxycoumarin deethylation by cimetidine in the silkworm midgut. Silkworm midgut was incubated in medium containing 7-ethoxycoumarin and cimetidine at 30 °C. Samples were collected, extracted by acetone, and treated with beta-glucosidase. The amount of 7-hydroxycomarin was determined by fluorometry.
Samples for HPLC were dissolved in 50% methanol.

cytochrome P450 [2] = assay: Decay of cytochrome P450 substrates in in vitro culture of the silkworm midgut (HPLC); conditions: for HPLC peak area of substrate, Sample 1 / HPLC peak area of substrate, Sample 2: midgut culture, raw data of Fig. 3; for HPLC peak area of substrate: silkworm (Bombyx mori)
Method: Silkworm midgut was incubated in medium with cytochrome P450 substrates at 30 °C. The samples were collected, extracted by acetone, and evaporated. The amounts of substrates were determined by HPLC analysis.
Silkworms (5th instar, 5 days) were dissected in a buffer (10 mM HEPES/NaOH, 0.9% NaCl, pH 7.9), and isolated organs were incubated with 3 mL TC-100 medium containing 10% fetal bovine serum, 50 µg/ml gentamicin, and substrates for the metabolic reaction. Whole samples (medium and organ) were homogenized and extracted by equal volumes of acetone followed by evaporation. Extracted samples were dissolved in 50 mM NaOAc buffer and treated with beta-glucosidase to measure the fluorescence of metabolized 7-ethoxycoumarin[6]. […] Samples for HPLC were dissolved in 50% methanol. HPLC analysis was performed using a PEGASIL ODS SP column (φ4.5 mm × 250 mm) with isocratic elution at a flow rate of 1 ml/min.

in vivo = conditions: for HPLC peak area in hemolymph: silkworm (Bombyx mori)
Method: Antibiotics were injected into silkworm hemolymph and hemolymph was collected by cutting the legs at the indicated time.
Antibiotics dissolved in saline were injected into the hemolymph of 5th instar silkworms using a 1-mL syringe attached to a 27 G needle. Hemolymph was harvested from abdominal appendages by cutting them with scissors at the indicated time-points after administration, and mixed with an equal volume of acetone. Samples were centrifuged at 15,000 rpm for 5 min at 4 °C, and the supernatants were evaporated with a centrifuge evaporator[18]. The dried materials were dissolved in 50% methanol and filtrated through a 0.45-µm filter. […] The amount of antibiotics in the sample was quantified from the peak area of the chromatogram.

[3] = in vivo, 10 mg/kg; cited from earlier work
[4] = dog, cited from earlier work
Candida albicans [5] = assay: Antifungal activity (MIC) by micro dilution with or without silkworm hemolymph; format: cell-based
Method: Antimicrobial and antifungal activities of each compound were measured by a micro dilution method[19],[20]. To measure protein binding to antifungal activity, silkworm hemolymph was collected by cutting the pseudopodium using scissors, and centrifuged at 3000 rpm for 5 min at 4 °C.

[6] = Protein-binding capacity in silkworm hemolymph (filter unit, HPLC); conditions: silkworm hemolymph
Candida albicans [7] = assay: Silkworm infection model with Candida albicans (ED50); format: in vivo, Bombyx mori (silkworm)
cytochrome P450 [8] = assay: Metabolism of luciferin derivatives in cultured silkworm midgut (P450-Glo, luminometer); format: in vitro ADME, Bombyx mori (silkworm); conditions: silkworm midgut incubated with luciferin substrate at 30 °C

SMILES: CCOc1ccc2ccc(=O)oc2c1 [7-ethoxycoumarin]
Tissue with the highest capacity to metabolize the compound (in words) (cytochrome P450 [1]): the midgut, not the fat body, had the highest capacity to metabolize

SMILES: Cn1c(=O)c2c(ncn2C)n(C)c1=O [Caffeine]
HPLC peak area of substrate, Sample 1 (cytochrome P450 [2]; 0 h): 236597 | HPLC peak area of substrate, Sample 2 (cytochrome P450 [2]; 0 h): 235789 | HPLC peak area of substrate, Sample 1 (cytochrome P450 [2]; 1 h): 225184 | HPLC peak area of substrate, Sample 2 (cytochrome P450 [2]; 1 h): 213119 | HPLC peak area of substrate, Sample 1 (cytochrome P450 [2]; 4 h): 220757 | HPLC peak area of substrate, Sample 2 (cytochrome P450 [2]; 4 h): 220302 | HPLC peak area of substrate, Sample 1 (cytochrome P450 [2]; 20 h): 226873 | HPLC peak area of substrate, Sample 2 (cytochrome P450 [2]; 20 h): 222211

Cltot (total body clearance) (in vivo; in vivo): 0.15 mL/g/h | half-life (in vivo; in vivo): 6 h
SMILES: O=C(N[C@H](CO)[C@H](O)c1ccc([N+](=O)[O-])cc1)C(Cl)Cl [Chloramphenicol]
Time-course of the decrease in concentration in hemolymph (in words) (in vivo; in vivo): biphasic | HPLC peak area in hemolymph (in vivo; in vivo, 0.1 min): 10505876 | HPLC peak area in hemolymph (in vivo; in vivo, 1 min): 8079061 | HPLC peak area in hemolymph (in vivo; in vivo, 5 min): 4188656 | HPLC peak area in hemolymph (in vivo; in vivo, 10 min): 3076056 | HPLC peak area in hemolymph (in vivo; in vivo, 20 min): 2727973 | HPLC peak area in hemolymph (in vivo; in vivo, 30 min): 1928231 | HPLC peak area in hemolymph (in vivo; in vivo, 60 min): 2239912 | HPLC peak area in hemolymph (in vivo; in vivo, 90 min): 1941121 | HPLC peak area in hemolymph (in vivo; in vivo, 120 min): 1803643 | HPLC peak area in hemolymph (in vivo; in vivo, 180 min): 1414738 | HPLC peak area in hemolymph (in vivo; in vivo, 240 min): 1202608 | Cltot [3]: 0.24 mL/g/h

Metabolism in the silkworm midgut (in words) (cytochrome P450 [2]): metabolized in the silkworm midgut | HPLC peak area of substrate (cytochrome P450 [2]; 0 h): 2620000 | HPLC peak area of substrate (cytochrome P450 [2]; 1 h): 2450000 | HPLC peak area of substrate (cytochrome P450 [2]; 4 h): 2250000 | HPLC peak area of substrate (cytochrome P450 [2]; 20 h): 1370000
SMILES: O=C(O)Cc1ccccc1Nc1c(Cl)cccc1Cl [Diclofenac]

Cltot (total body clearance) (in vivo; in vivo): 0.02 mL/g/h
SMILES: OC(Cn1cncn1)(Cn1cncn1)c1ccc(F)cc1F [Fluconazole]
half-life (in vivo; hemolymph): 12 h | Time-course of the decrease in concentration in hemolymph (in words) (in vivo; in vivo): biphasic | HPLC peak area in hemolymph (in vivo; in vivo, 0.1 min): 4424583 | HPLC peak area in hemolymph (in vivo; in vivo, 1 min): 3714240 | HPLC peak area in hemolymph (in vivo; in vivo, 5 min): 1821531 | HPLC peak area in hemolymph (in vivo; in vivo, 10 min): 2367593 | HPLC peak area in hemolymph (in vivo; in vivo, 20 min): 2257323 | HPLC peak area in hemolymph (in vivo; in vivo, 30 min): 2040721 | HPLC peak area in hemolymph (in vivo; in vivo, 60 min): 1663340 | HPLC peak area in hemolymph (in vivo; in vivo, 105 min): 1575678 | HPLC peak area in hemolymph (in vivo; in vivo, 120 min): 1440231 | HPLC peak area in hemolymph (in vivo; in vivo, 180 min): 1474050 | HPLC peak area in hemolymph (in vivo; in vivo, 240 min): 1455753 | HPLC peak area in hemolymph (in vivo; in vivo, 360 min): 1088734 | Vdss ([4]; dose 10 mg/kg): 0.7 mL/g | t1/2 ([4]; dose 10 mg/kg): 13.0 h | Cltot ([4]; in vivo, 10 mg/kg): 0.04 mL/g/h | MIC (Candida albicans [5]; read-out: MIC with 10% hemolymph (B), with 10% silkworm hemolymph): 3.2 mg/L (≈ 10.4 µM) | MIC (Candida albicans [5]; without silkworm hemolymph, read-out: MIC without hemolymph (A)): 0.4 mg/L (≈ 1.31 µM) | fraction unbound at 10 min, 10 µM [6]: 0.35 | Therapeutic effect in the silkworm infection model (in words) (Candida albicans [7]; silkworm infection model): potent therapeutic effects at a low dose | ED50 (Candida albicans [7]; silkworm infection model with Candida albicans): 0.7 mg/kg

Production of luciferin (RFU/organ) (cytochrome P450 [8]): 198,000 RFU/organ
SMILES: CC(C)OC(OC(C)C)C1CSC(c2nc3ccc(O)cc3s2)=N1 (centres unmarked) [Luciferin-IPA]
